Laboratory results taken from PMC8252455, “Prediction of a clinically effective dose of THY1773, a novel V 1B receptor antagonist, based on preclinical data” (Biopharmaceutics & Drug Disposition, 2021).

Assays:
[1] = Metabolic stability in rat liver microsomes; format: in vitro ADME; conditions: 1 μmol/L
Protocol: The oxidative metabolism of THY1773 was evaluated in rat and dog liver microsomes. THY1773 (1 μmol/L) was incubated with pooled liver microsomes (0.25 mg protein/ml) in sodium–potassium phosphate buffer (pH 7.4) consisting of 100 mmol/L sodium phosphate, 100 mmol/L potassium chloride, 2.5 mmol/L magnesium chloride (MgCl2), 1.5 mmol/L glucose‐6‐phosphate (G‐6‐P), and 0.18 units/ml G‐6‐P dehydrogenase (G‐6‐PDH). The reactions were initiated by the addition of β‐nicotinamide–adenine dinucleotide phosphate, oxidized form (NADP^+, 0.16 mmol/L), and incubated for 10, 20, 30, 40, 50, and 60 min. […] The intrinsic clearance (CLint) was calculated by the substrate depletion method described by Naritomi et al. (2001).
Since the CLliver was underestimated in rats and dogs from CLint in liver microsomes, the ratio of observed in vivo CLint and predicted CLint was calculated as the empirical scaling factor (ESF) for the extrapolation of CLliver from in vitro data. […] The total plasma clearance (CLtotal) was calculated by Equation (4): (4) CLtotal=QH×fu×(CLint/fu,mic)/QH+(fu/Rb)×(CLint/fu,mic)+CLrenal where QH is hepatic blood flow, fu is the free fraction in plasma, fu,mic is the fraction unbound in HLMs, Rb is blood‐to‐plasma ratio, and CLrenal is renal clearance. The fu,mic value was calculated using the Simcyp population based simulator (Version 16 R1; Simcyp Ltd.). […]

[2] = PK and urinary excretion in rats; format: in vivo, rat
Protocol: The PK and urinary excretion of THY1773 in rats (1 mg/kg) and dogs (0.5 mg/kg) under fasted conditions were evaluated following intravenous or oral administration of THY1773. THY1773 was dissolved in 10% (vol/vol) hydroxypropyl‐β‐cyclodextrin at pH 4 for intravenous administration, or suspended in 0.5% (wt/vol) methyl cellulose 400 for oral administration. After a single intravenous or oral administration of THY1773, blood samples were collected into tubes containing EDTA‐2K as an anticoagulant. The scheduled time points were predose (dog only), 5 (intravenous only), 15, 30 min, 1, 2, 4, 8, 12, and 24 h postdose. Plasma was separated by centrifugation. Urine samples were collected into bottles set on ice for 24 h after intravenous administration of THY1773. Plasma and urine samples were treated with 4 volumes of acetonitrile/methanol (9:1, vol/vol) containing the IS. After centrifugation (3639 × g, 4°C, 10 min) to remove precipitated proteins, the supernatant was subjected to LC‐MS/MS analysis. The distributions of THY1773 into brain and pituitary gland in rats were investigated after a single oral administration of THY1773 (1 mg/kg). Blood was collected from the tail vein into tubes containing EDTA‐2K at 1 h after a single oral administration of THY1773, and the plasma was separated by centrifugation (12000 × g, 4°C, 3 min). After blood collection, the brain and pituitary gland were excised followed by homogenization with approximately 4 volumes of distilled water. Plasma, brain, and pituitary samples were treated with 4 volumes of acetonitrile/methanol (9:1, vol/vol) containing the IS and centrifuged (3639 × g, 4°C, 10 min). Aliquots of the supernatant were subjected to LC‐MS/MS analysis.
The plasma concentration–time profiles of THY1773 were analyzed by a non‐compartmental analysis with PK analysis software Phoenix WinNonlin® (version 6.1; Certara), and the PK parameters were calculated. The fraction excreted in urine was calculated by dividing the amount of THY1773 excreted in urine by the administered dose.

pituitary V1B receptor = molecular target: T1, pituitary V1B receptor (Homo sapiens, UniProt P47901); test: Phase 1 RO study using PET; format: in vivo; conditions: unpublished data
T1 construct: from tissue; host or cells: pituitary gland of human subjects, in vivo PET
T1 sequence (P47901 1-424): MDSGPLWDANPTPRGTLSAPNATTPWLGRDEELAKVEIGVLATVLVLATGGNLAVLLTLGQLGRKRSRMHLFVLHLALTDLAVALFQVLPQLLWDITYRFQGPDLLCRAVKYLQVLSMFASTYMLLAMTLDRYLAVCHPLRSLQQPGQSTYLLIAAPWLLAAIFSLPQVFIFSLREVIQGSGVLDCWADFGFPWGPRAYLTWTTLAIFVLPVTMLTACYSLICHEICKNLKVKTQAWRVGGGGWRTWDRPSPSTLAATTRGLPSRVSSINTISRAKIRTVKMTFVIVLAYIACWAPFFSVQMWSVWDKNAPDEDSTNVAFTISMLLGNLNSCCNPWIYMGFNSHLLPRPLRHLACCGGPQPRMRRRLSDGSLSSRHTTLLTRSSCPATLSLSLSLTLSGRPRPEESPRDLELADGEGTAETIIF

major CYP isoforms = test: In vitro CYP inhibition or induction potential; format: in vitro ADME; conditions: data not shown
[3] = male rats, iv 1 mg/kg, mean (%CV), n=3
[4] = male rats, po 1 mg/kg, mean (%CV), n=3

CC(C)NC(=O)Cn1c(-c2cccc(Cl)c2)nn(-c2ccc(CCN3CCOCC3)cc2)c1=O [THY1773]
CLint in liver microsomes [1]: 22.0 μL/min/mg protein
AUC0‐∞ [2, 3]: 762 (14.9) h·ng/ml
CLtotal [2, 3]: 1330 (13.7) ml/h/kg
Vdss [2, 3]: 2220 (5.7) ml/kg
t1/2 [2, 3]: 1.38 (2.3) h
F (oral bioavailability) ([2]; male rats, po 1 mg/kg, 1 mg/kg): 46.6%
AUC0‐∞ [2, 4]: 355 (13.5) h·ng/ml
Cmax [2, 4]: 136 (11.8) ng/ml
t1/2 [2, 4]: 1.45 (5.5) h
tmax [2, 4]: 0.833 (34.6) h
CLrenal compared with fu × GFR ([2]; rats): comparable to fu × GFR
CLtotal as share of hepatic blood flow ([2]; rats, single intravenous administration): approximately 30 % of hepatic blood flow
Urinary excretion of unchanged drug ([2]; rats, within 24 h post intravenous dosing): 4.6%
V1B RO at steady state (PET) (pituitary V1B receptor; 10 mg): 55.3%
V1B RO at steady state (PET) (pituitary V1B receptor; 50 mg): 75.1%
In vivo EC50 for V1B RO compared with in vitro Ki for human V1B receptor (pituitary V1B receptor; human PET): comparable (within twofold)
In vitro inhibition or induction potential on major CYP isoforms (major CYP isoforms): did not have any apparent in vitro inhibition or induction potential
